In general, Kd refers to the concentration at which binding is half-saturated.

The target in this assay is T1, HIF-3α (Mus musculus, UniProt Q0VBL6).
T1 construct: gene Hif3a; SPR: MBP-HIF-3α-PAS-B (residues 235-363); crystal: HIF-3α residues 4-358 with ARNT residues 82–464; with ARNT (in the crystal, thermal shift, AS-MS, TR-FRET and HDX-MS; not in SPR)
Nature of the assay: co-crystal structure ([…] Å), SPR, thermal shift, AS-MS, HDX-MS. It counts as binding.

T1 sequence (Q0VBL6 235-363): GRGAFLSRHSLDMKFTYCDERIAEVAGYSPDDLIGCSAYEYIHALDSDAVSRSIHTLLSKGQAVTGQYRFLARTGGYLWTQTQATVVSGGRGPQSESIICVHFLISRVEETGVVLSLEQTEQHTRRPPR

`CCCCCCCC/C=C\CCCCCCCC(=O)NCCO` [OEA, oleoylethanolamide]: the Kd is roughly 14 µM.

The record behind these values is publication PMC9085743, “Identification of oleoylethanolamide as an endogenous ligand for HIF-3α” (Nature Communications, 2022).
